These results are taken from US20200316087A1, “NOVEL COMBINATION THERAPY FOR ANXIETY DISORDERS, EPILEPSY, AND PAIN” (priority 2017, published 2020).

This assay relates to 6 Hz-induced seizures. Briefly: 6 Hz (44 mA) seizure model. The note with it: mice; for Number protected/number tested: 2 hr post dosing. Format: in vivo. The source says:
This seizure model is utilized to screen for drugs that might […] by other screening approaches. For example, the highly used anticonvulsant leviteracetam was effective in this test but not in the pentylenetetrazole assay. Adult, male mice were subjected to 6 Hz stimulation at 44 mA as originally described by Barton et al. (Epilepsy Res. 2001; 47:217-27) and conducted per protocol of the NTH Anticonvulsant Screening Program (available online from the National Institute of Neurological Disorders and Stroke—6 Hz 44 mA Psychomotor Seizure Model, Mouse). Briefly, a mouse was dosed with KRM-II-81, p.o., and 2 hr later given 6 Hz stimulation for 3 sec delivered through corneal electrodes at 44 mA and observed for the presence or absence of seizure activity. A separate group of mice was dosed with higher doses of KRM-II-81 and observed for potential deficits in motor performance and overt signs of toxicity at 4 hr post dosing.

Take `C#Cc1ccc2c(c1)C(c1ccccn1)=NCc1c(-c3cnco3)ncn1-2` [KRM-II-81, 5-(8-ethynyl-6-(pyridin-2-yl)-4H-benzo[f]imidazo[1,5-a][1,4]diazepin-3-yl)oxazole]: the Number protected/number tested (dose 10, p.o.) is reported as 0/8; the Number protected/number tested (dose 25, p.o.) is 3/8; the Number protected/number tested (dose 50, p.o.) is recorded as 7/8. Besides, the “6 Hz Potency (MED)” value (p.o., doses 10-50 mg/kg) worked out at 50 mg/kg.
